Reference: ChEMBL document CHEMBL4421728, “Bach1 Inhibitors in Combination with Nrf2 Activators and Pharmaceutical Compositions Thereof” (2017)

Assays:
[1] = target: T1, Transcription regulator protein BACH1 (Homo sapiens) (UniProt O14867); assay: Inhibition of Bach1 in normal human lung fibroblasts assessed as induction of HMOX protein expression at 5 uM incubated for 16 to 18 hrs by immunostaining relative to control
T1 sequence (whole entry): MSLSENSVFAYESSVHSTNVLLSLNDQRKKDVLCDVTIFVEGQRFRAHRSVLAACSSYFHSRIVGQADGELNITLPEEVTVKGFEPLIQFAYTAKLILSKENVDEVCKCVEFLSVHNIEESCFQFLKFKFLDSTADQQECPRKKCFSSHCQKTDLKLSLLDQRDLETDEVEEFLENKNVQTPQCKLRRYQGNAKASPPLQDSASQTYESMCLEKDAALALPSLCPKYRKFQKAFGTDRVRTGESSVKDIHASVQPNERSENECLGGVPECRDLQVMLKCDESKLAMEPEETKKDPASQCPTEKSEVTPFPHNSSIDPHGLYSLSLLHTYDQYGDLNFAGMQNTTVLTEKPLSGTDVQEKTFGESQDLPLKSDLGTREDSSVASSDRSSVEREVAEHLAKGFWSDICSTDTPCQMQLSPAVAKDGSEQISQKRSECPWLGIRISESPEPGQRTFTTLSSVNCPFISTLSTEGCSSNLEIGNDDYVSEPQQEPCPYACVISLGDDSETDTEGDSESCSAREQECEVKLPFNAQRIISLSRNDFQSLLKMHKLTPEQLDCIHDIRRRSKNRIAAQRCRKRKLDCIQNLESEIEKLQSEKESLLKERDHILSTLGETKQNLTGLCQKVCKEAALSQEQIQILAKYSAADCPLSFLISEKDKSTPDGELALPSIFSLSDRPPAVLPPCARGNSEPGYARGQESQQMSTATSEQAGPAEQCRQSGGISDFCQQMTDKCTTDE

[2] = target: T1, Transcription regulator protein BACH1 (Homo sapiens); assay: Inhibition of Bach1 in normal human lung fibroblasts assessed as induction of HMOX protein expression at 0.078 uM incubated for 16 to 18 hrs in presence of 0.0048 uM Nrf2 activator Bardoxolone methyl by immunostaining relative to control
[3] = target: T1, Transcription regulator protein BACH1 (Homo sapiens); assay: Inhibition of Bach1 in normal human lung fibroblasts assessed as induction of HMOX protein expression at 0.078 uM incubated for 16 to 18 hrs in presence of 0.0097 uM Nrf2 activator Bardoxolone methyl by immunostaining relative to control
[4] = target: T1, Transcription regulator protein BACH1 (Homo sapiens); assay: Inhibition of Bach1 in normal human lung fibroblasts assessed as induction of HMOX protein expression at 1.25 uM incubated for 16 to 18 hrs in presence of 0.0097 uM Nrf2 activator Bardoxolone methyl by immunostaining relative to control
[5] = target: T1, Transcription regulator protein BACH1 (Homo sapiens); assay: Inhibition of Bach1 in normal human lung fibroblasts assessed as induction of HMOX protein expression at 2.5 uM incubated for 16 to 18 hrs in presence of 0.0097 uM Nrf2 activator Bardoxolone methyl by immunostaining relative to control
[6] = target: T1, Transcription regulator protein BACH1 (Homo sapiens); assay: Inhibition of Bach1 in normal human lung fibroblasts assessed as induction of HMOX protein expression at 0.019 uM incubated for 16 to 18 hrs in presence of 0.019 uM Nrf2 activator Bardoxolone methyl by immunostaining relative to control
[7] = target: T1, Transcription regulator protein BACH1 (Homo sapiens); assay: Inhibition of Bach1 in normal human lung fibroblasts assessed as induction of HMOX protein expression at 0.039 uM incubated for 16 to 18 hrs in presence of 0.078 uM Nrf2 activator Bardoxolone methyl by immunostaining relative to control
[8] = target: T1, Transcription regulator protein BACH1 (Homo sapiens); assay: Inhibition of Bach1 in normal human lung fibroblasts assessed as induction of HMOX protein expression at 0.312 uM incubated for 16 to 18 hrs in presence of 0.078 uM Nrf2 activator Bardoxolone methyl by immunostaining relative to control
[9] = target: T1, Transcription regulator protein BACH1 (Homo sapiens); assay: Inhibition of Bach1 in normal human lung fibroblasts assessed as induction of HMOX protein expression at 0.156 uM incubated for 16 to 18 hrs in presence of 0.156 uM Nrf2 activator Bardoxolone methyl by immunostaining relative to control
[10] = target: T1, Transcription regulator protein BACH1 (Homo sapiens); assay: Inhibition of Bach1 in normal human lung fibroblasts assessed as induction of HMOX protein expression at 0.019 uM incubated for 16 to 18 hrs in presence of 0.312 uM Nrf2 activator Bardoxolone methyl by immunostaining relative to control
[11] = target: T1, Transcription regulator protein BACH1 (Homo sapiens); assay: Inhibition of Bach1 in normal human lung fibroblasts assessed as induction of HMOX protein expression at 0.039 uM incubated for 16 to 18 hrs in presence of 0.312 uM Nrf2 activator Bardoxolone methyl by immunostaining relative to control
[12] = target: T1, Transcription regulator protein BACH1 (Homo sapiens); assay: Inhibition of Bach1 in normal human lung fibroblasts assessed as induction of HMOX protein expression at 0.312 uM incubated for 16 to 18 hrs in presence of 0.312 uM Nrf2 activator Bardoxolone methyl by immunostaining relative to control

fold change (FC) [1]: 17.7
fold change (FC) [2]: 4.72
fold change (FC) [3]: 8.43
fold change (FC) [4]: 16.5
fold change (FC) [5]: 19.4
fold change (FC) [6]: 10
fold change (FC) [7]: 18.7
fold change (FC) [8]: 21.1
fold change (FC) [9]: 18.3
fold change (FC) [10]: 17.2
fold change (FC) [11]: 17.4
fold change (FC) [12]: 17.4
Structure (SMILES): CNC(=O)c1ccc2c(c1)nc(Nc1nc3ccc(OC(F)(F)F)cc3s1)n2C
